This is an account of results in US20170086736A1, “METHODS AND SYSTEMS USING NON-LABELED ANTIMETABOLITES AND ANALOGS THEREOF AS THERANOSTIC AGENTS” (The Johns Hopkins University, priority 2014, published 2017).

Each structure is given as a SMILES string.

Data set [1] in a line: CEST MRI of drugs in PBS solution (in vitro phantom). In kind it is physicochemical. To be noted: for offset of CEST contrast corresponding to NH2 / offset of CEST contrast corresponding to OH: PBS solution, 20 mM, pH 7.4, 37° C., B1=3.6 μT, 3 s. The text has this: This would of course correspond only to an mM or μM change for the drug and would not be detectable on the large MRI signal of 55 M water molecules (110 M protons). However, for every saturated proton leaving from the solute to water, an intact proton relocates from water to the solute, a process so-called chemical or proton exchange, and subsequently gets saturated again, which will be transferred to the water again in the next exchange. If the exchange rate is fast enough, this continuous process can lead to great signal amplification of the NMR signal carried by the agent, even up to thousands of times (depending on the exchange rate). This can then cause a several percentage decrease in the water signal, allowing imaging of the low-concentration agent with the sensitivity of the water signal. The percentage of water signal decrease, or CEST contrast, is traditionally described by magnetization transfer ratio asymmetry (MTRasym) defined by MTRasym=(S^−Δω−S^+Δω)/S0, where […] are the MRI signal with RF irradiation at particular offsets +Δω and −Δω respectively, and So is that acquired without RF saturation (element (d) of FIG. 1). Because having detectable exchangeable protons (at an appropriate rate at an adequate concentration) is a requirement for generating CEST MRI signal, it thus opens the possibility to detect natural biocompatible molecules by their CEST signal, potentially improving the clinical translatability.
Elements (a)-(d) of FIG. 1 show an illustration of CEST contrast (taken from reference [^1] with permission). […] However, this process is repeated continuously, leading to effect amplification of magnitude depending on the exchange rate (ksw). The CEST contrast can be quantified by a NMR spectrum element (b), a z spectrum in element (c) of frequency dependence of normalized saturated water signal Ssat/S0, with S0 the non-saturated signal) or, an MTRasym plot in element (d). Elements (e)-(f) show CEST detection of drugs through their carried exchangeable protons on NH2 (blue) and OH (red) as exemplified by araC (left) and Gem (right) in PBS solution (20 mM, pH 7.4) at 37° C. using a standard CEST MRI method (RF pulse field strength (B1)=3.6 μT and duration =3 s). […] Elements (f)-(g) of FIG. 1 show the CEST contrast of them as quantified by z-spectra and MTRasym plots respectively, showing strong CEST contrast at ˜1 and ˜2 ppm corresponding to OH and NH2 respectively, which appear partially overlapped at pH 7.4 but can be resolved at low saturation power.
Other drugs, including prodrugs and drug modulators, as well as the drug carriers, are intended to be included within the general scope of this invention. Many of them have exchangeable protons such as OH, NH and NH2 (FIG. 1). Thus, in one embodiment, the water exchangeable proton corresponds to at least one of an OH, NH2 or NH group. The water-exchangeable proton can include at least one of an OH, NH2 or NH group. Other antitumor categories and the biochemical drug modulators (a non-toxic agent that can enhance the effect of drugs when used together, but has no effect when used alone) as listed in Table 1 are also intended to be within the scope of the current invention.

The conditions of data set [2]: patients, repetitive infusions, single dose 3 g/m^2 over three hours, up to eight doses; cited from earlier work.
For data set [3] the following is noted: in vivo; cited from earlier work.
For data set [4] the following is noted: single dose of 800 mg/kg (i.p.); cited from earlier work.

Turning to `Nc1ccn([C@@H]2O[C@H](CO)[C@@H](O)[C@@H]2O)c(=O)n1` [araC, Cytarabine], in data set [1], the “offset of CEST contrast corresponding to NH2” value is reported as about 2 ppm and the “offset of CEST contrast corresponding to OH” value is given as about 1 ppm. For the same compound, in data set [2], the cerebellar toxicity result was “no noticeable cerebellar toxicity”.
With `Nc1ccn([C@@H]2O[C@H](CO)[C@@H](O)C2(F)F)c(=O)n1` [gemcitabine, Gemcitabine], in data set [1], the “offset of CEST contrast corresponding to NH2” value was about 2 ppm and the “offset of CEST contrast corresponding to OH” value is about 1 ppm. Moreover, in data set [1] (at low pH), the “offset at which the maximum CEST signal could be detected” value is listed as 3.2 ppm. Besides, the “maximum tolerated dose (MTD)” value in data set [3] was 2200 m^g/m2. The “accumulation of gemcitabine in tumor” value in data set [4] was “up to several mM”.
